Experiments:
Test in all cases: combination Emax (second highest fraction inhibited in the dose matrix, 72 h); higher = more inhibition; extreme values may be limits of the assay
[1] = system: A2058 (Melanoma)
In short: (§1)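 Bliss excess equals the observed combination effect minus the expected value EA + EB − EA·EB, where EA and EB are the effects of each agent alone. Combination Emax is the second-highest inhibition within the matrix. Inhibition was scaled from CellTiter-Glo 2.0 luminescence, with 0 set by vehicle wells and 1 by blank wells, after 72 hours of two-drug dosing of cells plated in 1536-well plates.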

[2] = system: FADU (Head and Neck Carcinoma)
In short: as §1

[3] = system: GB-1 (Glioblastoma)
In short: as §1

[4] = system: GP5d (Colorectal Carcinoma)
In short: as §1

[5] = system: HCT-15 (Colorectal Carcinoma)
In short: as §1

[6] = system: HSC-39 (Gastric Carcinoma)
In short: as §1

[7] = system: L-1236 (Hodgkin's Lymphoma)
In short: as §1

[8] = system: MKN45 (Gastric Carcinoma)
In short: as §1

[9] = system: NCI-H446 (Small Cell Lung Carcinoma)
In short: as §1

[10] = system: OPM-2 (Plasma Cell Myeloma)
In short: as §1

[11] = system: OVMIU (Ovarian Carcinoma)
In short: as §1

[12] = system: PC-3_[JPC-3] (Lung Adenocarcinoma)
In short: as §1

[13] = system: PSN1 (Pancreatic Carcinoma)
In short: as §1

[14] = system: RCM-1 (Colorectal Carcinoma)
In short: as §1

[15] = system: RERF-GC-1B (Gastric Carcinoma)
In short: as §1

[16] = system: RKN (Other Solid Carcinomas)
In short: as §1

[17] = system: SU-DHL-10 (B-Cell Non-Hodgkin's Lymphoma)
In short: as §1

[18] = system: TE-8 (Esophageal Squamous Cell Carcinoma)
In short: as §1

[19] = system: VAL (B-Cell Non-Hodgkin's Lymphoma)
In short: as §1

[20] = system: SHP-77 (Small Cell Lung Carcinoma)
In short: as §1

## CN(CCO)CC[C@H](CSc1ccccc1)Nc1ccc(S(=O)(=O)NC(=O)c2ccc(N3CCC([C@@H](O)c4ccccc4-c4ccc(Cl)cc4)CC3)cc2)cc1S(=O)(=O)C(F)(F)F [AZD4320] + C1CN(CCC1(C(=O)N[C@@H](CCO)C2=CC=C(C=C2)Cl)N)C3=NC=NC4=C3C=CN4 [Capivasertib] (first compound max 1 µM, 7x7, partner max 3 µM)
[1]
  combination Emax: 0.191
[2]
  combination Emax: 0.116
[3]
  combination Emax: 0.117
[4]
  combination Emax: 0.72
[5]
  combination Emax: 0.174
[6]
  combination Emax: 0.328
[7]
  combination Emax: 0.965
[8]
  combination Emax: 0.456
[9]
  combination Emax: 0.78
[10]
  combination Emax: 0.955
[11]
  combination Emax: 0.876
[12]
  combination Emax: 0.152
[13]
  combination Emax: 0.276
[14]
  combination Emax: 0.343
[15]
  combination Emax: 0.496
[16]
  combination Emax: 0.154
[17]
  combination Emax: 0.97
[18]
  combination Emax: 0.349
[19]
  combination Emax: 1

## CN(C)CCCOc1ccc(-c2ccc3ncc4c(c3c2)n(C2CCOCC2)c(=O)n4C)cn1 [AZD0156] + O=C(c1cc(Cc2n[nH]c(=O)c3ccccc23)ccc1F)N1CCN(C(=O)C2CC2)CC1 [Olaparib] (first compound max 3 µM, partner max 3 µM)
[1]
  combination Emax: 0.37
[2]
  combination Emax: 0.258
[3]
  combination Emax: 0.238
[4]
  combination Emax: 0.297
[5]
  combination Emax: 0.378
[6]
  combination Emax: 0.413
[7]
  combination Emax: 0.326
[8]
  combination Emax: 0.356
[9]
  combination Emax: 0.362
[10]
  combination Emax: 0.231
[11]
  combination Emax: 0.347
[12]
  combination Emax: 0.181
[13]
  combination Emax: 0.228
[14]
  combination Emax: 0.287
[15]
  combination Emax: 0.317
[16]
  combination Emax: 0.214
[20]
  combination Emax: 0.209
[17]
  combination Emax: 0.342
[19]
  combination Emax: 0.542

## CN(CCO)CC[C@H](CSc1ccccc1)Nc1ccc(S(=O)(=O)NC(=O)c2ccc(N3CCC([C@@H](O)c4ccccc4-c4ccc(Cl)cc4)CC3)cc2)cc1S(=O)(=O)C(F)(F)F [AZD4320] + CCN(CCO)CCCOc1ccc2c(Nc3cc(CC(=O)Nc4cccc(F)c4)[nH]n3)ncnc2c1 [AZD2811] (first compound max 1 µM, 7x7, partner max 1 µM)
[1]
  combination Emax: 0.47
[2]
  combination Emax: 0.245
[3]
  combination Emax: 0.117
[4]
  combination Emax: 0.566
[5]
  combination Emax: 0.135
[6]
  combination Emax: 0.966
[7]
  combination Emax: 0.961
[8]
  combination Emax: 0.316
[9]
  combination Emax: 0.991
[10]
  combination Emax: 0.693
[11]
  combination Emax: 0.802
[12]
  combination Emax: 0.147
[13]
  combination Emax: 0.349
[14]
  combination Emax: 0.545
[15]
  combination Emax: 0.568
[20]
  combination Emax: 0.65
[17]
  combination Emax: 0.759
[18]
  combination Emax: 0.583
[19]
  combination Emax: 1

## C[C@@H](c1ccc2nccn2c1)n1nnc2ncc(-c3cnn(C)c3)nc21 [Savolitinib] + CN(CC[C@H](CSC1=CC=CC=C1)NC2=C(C=C(C=C2)S(=O)(=O)NC(=O)C3=CC=C(C=C3)N4CCC(CC4)[C@H](C5=CC=CC=C5C6=CC=C(C=C6)Cl)O)S(=O)(=O)C(F)(F)F)CCO [AZD4320] (first compound max 1 µM, 7x7, partner max 1 µM)
[1]
  combination Emax: 0.192
[2]
  combination Emax: 0.221
[3]
  combination Emax: 0.15
[4]
  combination Emax: 0.29
[5]
  combination Emax: 0.132
[9]
  combination Emax: 0.694
[15]
  combination Emax: 0.367
[17]
  combination Emax: 0.0854

## CCc1c2c(nc3ccc(O)cc13)-c1cc3c(c(=O)n1C2)COC(=O)[C@]3(O)CC [SN-38] + O=C(c1cc(Cc2n[nH]c(=O)c3ccccc23)ccc1F)N1CCN(C(=O)C2CC2)CC1 [Olaparib] (first compound max 0.3 µM, 7x7, partner max 10 µM)
[1]
  combination Emax: 0.22
[2]
  combination Emax: 0.996
[3]
  combination Emax: 0.781
[4]
  combination Emax: 0.704
[5]
  combination Emax: 0.852
[6]
  combination Emax: 0.887
[7]
  combination Emax: 0.87
[8]
  combination Emax: 0.847
[9]
  combination Emax: 0.905
[10]
  combination Emax: 0.734
[11]
  combination Emax: 0.479
[12]
  combination Emax: 0.825
[13]
  combination Emax: 0.753
[14]
  combination Emax: 0.809
[16]
  combination Emax: 0.651
[20]
  combination Emax: 0.567
[18]
  combination Emax: 0.575
[19]
  combination Emax: 0.994

## C=CCn1c(=O)c2cnc(Nc3ccc(N4CCN(C)CC4)cc3)nc2n1-c1cccc(C(C)(C)O)n1 [AZD1775] + C1CN(CCC1(C(=O)N[C@@H](CCO)C2=CC=C(C=C2)Cl)N)C3=NC=NC4=C3C=CN4 [Capivasertib] (first compound max 3 µM, partner max 3 µM)
[1]
  combination Emax: 0.886
[2]
  combination Emax: 0.644
[3]
  combination Emax: 0.625
[4]
  combination Emax: 0.973
[5]
  combination Emax: 0.896
[6]
  combination Emax: 0.958
[7]
  combination Emax: 0.876
[8]
  combination Emax: 0.741
[9]
  combination Emax: 0.972
[10]
  combination Emax: 0.967
[11]
  combination Emax: 0.749
[12]
  combination Emax: 0.577
[13]
  combination Emax: 0.763
[14]
  combination Emax: 0.628
[16]
  combination Emax: 0.762
[20]
  combination Emax: 0.885
[17]
  combination Emax: 1
[19]
  combination Emax: 0.841

## COc1nnc2ccc(N3CCC(c4ccc(OCCN5CCN(C)C(=O)[C@H]5C)cc4)CC3)nn12 [AZD5153] + CN(CC[C@H](CSC1=CC=CC=C1)NC2=C(C=C(C=C2)S(=O)(=O)NC(=O)C3=CC=C(C=C3)N4CCC(CC4)[C@H](C5=CC=CC=C5C6=CC=C(C=C6)Cl)O)S(=O)(=O)C(F)(F)F)CCO [AZD4320] (first compound max 1 µM, 7x7, partner max 1 µM)
[1]
  combination Emax: 0.577
[2]
  combination Emax: 0.45
[3]
  combination Emax: 0.292
[4]
  combination Emax: 0.727
[5]
  combination Emax: 0.81
[9]
  combination Emax: 0.984
[15]
  combination Emax: 0.813
[17]
  combination Emax: 1

Reference: the supplement of paper PMC11061612
